Literature values in US7468367B2, “Ethylene diamine derivatives and their use as orexin-receptor antagonists” (Smithkline Beecham p.l.c., priority 2001, dated 2008).

Experiments:
freely-feeding rats = conditions: central administration, 4 hour time period
orexin receptors = conditions: central administration at the onset of the normal sleep period

For “orexin-A: peptide ligand and agonist of the orexin receptors; the human amino acid sequence is given in the 1st table (QPLPDCCRQKTCSCRLYELLHGAGNHAAGILTL; not fully specified; Orexin-A; UniProt O43612 34-66, looked up)”, the “increase in food intake over control rats receiving vehicle” value (freely-feeding rats) is given as “approximately four-fold” and the “arousal in rat sleep/EEG” value (orexin receptors) is given as “dose-related increase in arousal”.
